Measurements from the supplement of paper PMC10307832.

How the values were obtained:
Assay in all cases: relative viability (nuclei count vs DMSO), 5 days (fraction); higher = more cells survive
SK-MES-1 = test system: SK-MES-1
Method in brief: (§1)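 Relative viability is defined as nuclei in treated wells over nuclei in vehicle wells. Duplicate plates were run and medians reported. Lung cancer cell lines in 1536-well plates were dosed by pin tool one day after seeding, with one drug or with a fixed anchor-drug dose plus five library-drug doses (not always all listed) in √10 steps, and nuclei were counted after 5 days.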

NCI-H2347 = test system: NCI-H2347
Method in brief: as §1

HCC-15 = test system: HCC-15
Method in brief: as §1

COR-L 105 = test system: COR-L 105
Method in brief: as §1

UMC-11 = test system: UMC-11
Method in brief: as §1

NCI-H838 = test system: NCI-H838
Method in brief: as §1

HARA = test system: HARA
Method in brief: as §1

NCI-H2009 = test system: NCI-H2009
Method in brief: as §1

COR-L23 = test system: COR-L23
Method in brief: as §1

NCI-H1792 = test system: NCI-H1792
Method in brief: as §1

NCI-H522 = test system: NCI-H522
Method in brief: as §1

HOP-62 = test system: HOP-62
Method in brief: as §1

NCI-H2170 = test system: NCI-H2170
Method in brief: as §1

NCI-H647 = test system: NCI-H647
Method in brief: as §1

NCI-H1355 = test system: NCI-H1355
Method in brief: as §1

NCI-H2228 = test system: NCI-H2228
Method in brief: as §1

NCI-H1793 = test system: NCI-H1793
Method in brief: as §1

NCI-H1395 = test system: NCI-H1395
Method in brief: as §1

NCI-H1734 = test system: NCI-H1734
Method in brief: as §1

NCI-H358 = test system: NCI-H358
Method in brief: as §1

NCI-H1993 = test system: NCI-H1993
Method in brief: as §1

NCI-H1755 = test system: NCI-H1755
Method in brief: as §1

Nc1ccn([C@@H]2O[C@H](CO)[C@@H](O)[C@@H]2O)c(=O)n1 [Cytarabine] + Nc1nc2[nH]cc(CCc3ccc(C(=O)N[C@@H](CCC(=O)O)C(=O)O)cc3)c2c(=O)[nH]1 [Pemetrexed] (partner 0.2 µM)
relative viability (SK-MES-1; first compound 0.005 µM): 0.684
relative viability (SK-MES-1; first compound 0.01581 µM): 0.595
relative viability (SK-MES-1; first compound 0.05 µM): 0.336
relative viability (SK-MES-1; first compound 0.1581 µM): 0.233
relative viability (SK-MES-1; first compound 0.5 µM): 0.207
relative viability (NCI-H2347; first compound 0.005 µM): 0.392
relative viability (NCI-H2347; first compound 0.01581 µM): 0.522
relative viability (NCI-H2347; first compound 0.05 µM): 0.439
relative viability (NCI-H2347; first compound 0.1581 µM): 0.44
relative viability (NCI-H2347; first compound 0.5 µM): 0.391
relative viability (HCC-15; first compound 0.005 µM): 0.249
relative viability (HCC-15; first compound 0.01581 µM): 0.215
relative viability (HCC-15; first compound 0.05 µM): 0.226
relative viability (HCC-15; first compound 0.1581 µM): 0.225
relative viability (HCC-15; first compound 0.5 µM): 0.222
relative viability (COR-L 105; first compound 0.005 µM): 0.961
relative viability (COR-L 105; first compound 0.01581 µM): 1.19
relative viability (COR-L 105; first compound 0.05 µM): 0.678
relative viability (COR-L 105; first compound 0.1581 µM): 0.579
relative viability (COR-L 105; first compound 0.5 µM): 0.383
relative viability (UMC-11; first compound 0.005 µM): 0.551
relative viability (UMC-11; first compound 0.01581 µM): 0.491
relative viability (UMC-11; first compound 0.05 µM): 0.428
relative viability (UMC-11; first compound 0.1581 µM): 0.226
relative viability (UMC-11; first compound 0.5 µM): 0.195
relative viability (NCI-H838; first compound 0.005 µM): 0.243
relative viability (NCI-H838; first compound 0.01581 µM): 0.235
relative viability (NCI-H838; first compound 0.05 µM): 0.272
relative viability (NCI-H838; first compound 0.1581 µM): 0.216
relative viability (NCI-H838; first compound 0.5 µM): 0.213
relative viability (HARA; first compound 0.005 µM): 0.243
relative viability (HARA; first compound 0.01581 µM): 0.221
relative viability (HARA; first compound 0.05 µM): 0.217
relative viability (HARA; first compound 0.1581 µM): 0.171
relative viability (HARA; first compound 0.5 µM): 0.153
relative viability (NCI-H2009; first compound 0.005 µM): 0.971
relative viability (NCI-H2009; first compound 0.01581 µM): 0.99
relative viability (NCI-H2009; first compound 0.05 µM): 0.996
relative viability (NCI-H2009; first compound 0.1581 µM): 0.827
relative viability (NCI-H2009; first compound 0.5 µM): 0.258
relative viability (COR-L23; first compound 0.005 µM): 0.196
relative viability (COR-L23; first compound 0.01581 µM): 0.204
relative viability (COR-L23; first compound 0.05 µM): 0.206
relative viability (COR-L23; first compound 0.1581 µM): 0.16
relative viability (COR-L23; first compound 0.5 µM): 0.158
relative viability (NCI-H1792; first compound 0.01581 µM): 0.672
relative viability (NCI-H1792; first compound 0.05 µM): 0.751
relative viability (NCI-H1792; first compound 0.1581 µM): 0.182
relative viability (NCI-H1792; first compound 0.5 µM): 0.115
relative viability (NCI-H522; first compound 0.005 µM): 0.942
relative viability (NCI-H522; first compound 0.01581 µM): 0.846
relative viability (NCI-H522; first compound 0.05 µM): 0.631
relative viability (NCI-H522; first compound 0.1581 µM): 0.578
relative viability (NCI-H522; first compound 0.5 µM): 0.455
relative viability (HOP-62; first compound 0.005 µM): 0.388
relative viability (HOP-62; first compound 0.01581 µM): 0.411
relative viability (HOP-62; first compound 0.05 µM): 0.309
relative viability (HOP-62; first compound 0.1581 µM): 0.113
relative viability (HOP-62; first compound 0.5 µM): 0.072
relative viability (NCI-H2170; first compound 0.005 µM): 0.331
relative viability (NCI-H2170; first compound 0.01581 µM): 0.291
relative viability (NCI-H2170; first compound 0.05 µM): 0.333
relative viability (NCI-H2170; first compound 0.1581 µM): 0.205
relative viability (NCI-H2170; first compound 0.5 µM): 0.183
relative viability (NCI-H647; first compound 0.005 µM): 0.185
relative viability (NCI-H647; first compound 0.01581 µM): 0.174
relative viability (NCI-H647; first compound 0.05 µM): 0.0984
relative viability (NCI-H647; first compound 0.1581 µM): 0.0797
relative viability (NCI-H647; first compound 0.5 µM): 0.0683
relative viability (NCI-H1355; first compound 0.005 µM): 0.883
relative viability (NCI-H1355; first compound 0.01581 µM): 0.988
relative viability (NCI-H1355; first compound 0.05 µM): 0.821
relative viability (NCI-H1355; first compound 0.1581 µM): 0.553
relative viability (NCI-H1355; first compound 0.5 µM): 0.324
relative viability (NCI-H2228; first compound 0.005 µM): 0.32
relative viability (NCI-H2228; first compound 0.01581 µM): 0.275
relative viability (NCI-H2228; first compound 0.05 µM): 0.134
relative viability (NCI-H2228; first compound 0.1581 µM): 0.0993
relative viability (NCI-H2228; first compound 0.5 µM): 0.133
relative viability (NCI-H1793; first compound 0.005 µM): 0.902
relative viability (NCI-H1793; first compound 0.01581 µM): 0.827
relative viability (NCI-H1793; first compound 0.05 µM): 0.827
relative viability (NCI-H1793; first compound 0.1581 µM): 0.374
relative viability (NCI-H1793; first compound 0.5 µM): 0.206
relative viability (NCI-H1395; first compound 0.005 µM): 0.798
relative viability (NCI-H1395; first compound 0.01581 µM): 0.566
relative viability (NCI-H1395; first compound 0.05 µM): 0.638
relative viability (NCI-H1395; first compound 0.1581 µM): 0.361
relative viability (NCI-H1395; first compound 0.5 µM): 0.326
relative viability (NCI-H1734; first compound 0.005 µM): 0.501
relative viability (NCI-H1734; first compound 0.01581 µM): 0.236
relative viability (NCI-H1734; first compound 0.05 µM): 0.193
relative viability (NCI-H1734; first compound 0.1581 µM): 0.117
relative viability (NCI-H1734; first compound 0.5 µM): 0.103
relative viability (NCI-H358; first compound 0.005 µM): 0.195
relative viability (NCI-H358; first compound 0.01581 µM): 0.188
relative viability (NCI-H358; first compound 0.05 µM): 0.185
relative viability (NCI-H358; first compound 0.1581 µM): 0.168
relative viability (NCI-H358; first compound 0.5 µM): 0.116
relative viability (NCI-H1993; first compound 0.005 µM): 0.682
relative viability (NCI-H1993; first compound 0.01581 µM): 0.548
relative viability (NCI-H1993; first compound 0.05 µM): 0.299
relative viability (NCI-H1993; first compound 0.1581 µM): 0.448
relative viability (NCI-H1993; first compound 0.5 µM): 0.471
relative viability (NCI-H1755; first compound 0.005 µM): 0.472
relative viability (NCI-H1755; first compound 0.01581 µM): 0.453
relative viability (NCI-H1755; first compound 0.05 µM): 0.381
relative viability (NCI-H1755; first compound 0.1581 µM): 0.336
relative viability (NCI-H1755; first compound 0.5 µM): 0.351
